Consider 14 compounds from PMC7344389, “Discovery of Anti-Amoebic Inhibitors from Screening the MMV Pandemic Response Box on Balamuthia mandrillaris, Naegleria fowleri, and Acanthamoeba castellanii” (Pathogens, 2020).

Values joined by “and” are separate entries in the source; they are usually repeats but may differ in a detail not shown here. Equal values may be shown once. Read-outs that look alike come from different tables or passages of the source.

What all share (format): cell-based
For experiment [1], the system named is A549 human lung carcinoma cells. The experiment can be described thus: MTS cytotoxicity counter-screen of reconfirmed hits. As to the method:
Cytotoxicity of the reconfirmed hits was determined by using the CellTiter 96® AQueous One Solution Cell Proliferation Assay (Promega, Madison, WI) on A549 human lung carcinoma cells. A549 cells were seeded at a concentration of 1.6 × 10^4 cells/mL in 96-well tissue culture plates (Corning, NY, USA), in the presence of serially diluted active hits against B. mandrillaris, N. fowleri, or A. castellanii. Positive control wells contained cells and media; negative control wells contained 0.1% DMSO. Cells were grown in F12K medium supplemented with 10% FBS and 1% gentamycin (all supplied from Fisher Scientific, Atlanta, GA, USA). The inhibitor concentration started at 10 µM and was diluted in doubling dilutions to assess cytotoxicity in comparison to the respective free-living amoeba. Total volume of each well was 100 µL and plates were incubated at 37 °C, 5% CO2 for 72 h. Next, 4 h before the time-point, 20 µL of MTS (Promega, Madison, WI, USA) was added to each well. Inhibition of A549 growth was assessed at the 72 h time-point measuring the optical density (OD) values at 490 nm using a SpectraMax I3X plate reader (Molecular Devices, Sunnyvale, CA, USA). Curve fitting using non-linear regression was carried out using the average of replicates and the Levenberg–Marquardt algorithm, using DMSO as the normalization control, as defined in CDD Vault (Burlingame, CA, USA).

Experiment [2] concerns Balamuthia mandrillaris trophozoites. The experiment can be described thus: CellTiter-Glo 2.0 trophocidal assay, B. mandrillaris. The conditions noted are these: for IC50: CTG method, 72 h, duplicate twofold serial dilutions from 10 µM, mean ± SD; for potency against B. mandrillaris, in words: dose-response, CTG; for Selectivity Index (A549 IC50/B. mandrillaris IC50): SI = (IC50 A549)/(IC50 Amoeba). As for the experimental part:
Pathogenic Balamuthia mandrillaris (CDC:[…]; American Type Culture Collection (ATCC) 50209), a GAE isolate, isolated from a pregnant baboon at the San Diego Zoo in 1986 was donated by Luis Fernando […] University, Mexico [43]. Trophozoites were routinely grown axenically in Balamuthia mandrillaris Itson (BMI) media at 37 °C, 5% CO2 in vented 75 cm^2 tissue culture flasks (Olympus, El Cajon, CA, USA), until the cells were 80-90% confluent. For sub-culturing, 0.25% Trypsin-EDTA (Gibco, Gaithersburg, MD, USA) cell detachment reagent was used to detach the cells from the culture flasks. The cells were collected by centrifugation at 4000 rpm at 4 °C. Complete BMI media is produced by the addition of 10% fetal bovine serum (FBS) and 125 μg of penicillin/streptomycin antibiotics. The trophocidal activity of compounds was assessed using the CellTiter-Glo 2.0 luminescent viability assay (Promega, Madison, WI, USA), as previously described. Trophozoites were routinely cultured as described above and only logarithmic trophozoites were used. […] Inhibitors were assessed for percent inhibition using the criteria of ≤33% growth inhibition (no inhibition), 33-67% growth inhibition (moderate inhibition), and ≥67% growth inhibition (strong inhibition). […] We used this process to reduce the number of potential false positives. […] All assays were incubated at each of the parasites' representative growth temperatures, described above, for 72 h. At the 72 h time point, 25 μL of CellTiter-Glo 2.0 reagent was added to all wells of the 96-well plates using the Biomek NX^P automated workstation. The plates were protected from light and contents were mixed using an orbital shaker at 300 rpm at room temperature for 2 min to induce cell lysis. After shaking, the plates were equilibrated at room temperature for 10 min to stabilize the luminescent signal. The adenosine triphosphate (ATP) luminescent signal (relative light units; RLUs) was measured at 490 nm with a SpectraMax I3X plate reader (Molecular Devices, Sunnyvale, CA, USA). Drug inhibitory concentration (IC50) curves were generated using total ATP RLUs, where controls were calculated as the average of replicates using the Levenberg-Marquardt algorithm, using DMSO as the normalization control, as defined in Collaborative Drug Discovery Inc. (CDD) Vault (Burlingame, CA, USA). Values reported are from a minimum of two biological replicates with standard deviations.

Experiment [3] concerns Acanthamoeba castellanii trophozoites. The experiment can be described thus: CellTiter-Glo 2.0 trophocidal assay, A. castellanii. The conditions noted are these: for IC50: CTG method, 72 h, duplicate twofold serial dilutions from 10 µM, mean ± SD; for Selectivity Index (A549 IC50/A. castellanii IC50): SI = (IC50 A549)/(IC50 Amoeba); for potency against A. castellanii, in words: dose-response, CTG. As to the method:
This isolate was also purchased from ATCC. Trophozoites were routinely grown axenically at 27 °C in Protease Peptone-Glucose Media (PG) in non-vented 75 cm^2 tissue culture flasks (Olympus, El Cajon, CA, USA), until the cells were 80–90% confluent. For sub-culturing, cells were mechanically harvested to detach the cells from the culture flasks. The cells were collected by centrifugation at 4000 rpm at 4 °C.
The trophocidal activity of compounds was assessed using the CellTiter-Glo 2.0 luminescent viability assay (Promega, Madison, WI, USA), as previously described. Trophozoites were routinely cultured as described above and only logarithmic trophozoites were used. […] Initially all compounds were assessed in a single-point drug screen at 10 and 1 μM, as previously described. […] We used this process to reduce the number of potential false positives. Drugs were cherry-picked, dissolved in the media specific to each parasite, and assessed in twofold serial dilutions from the highest concentration of 10 μM. All assays were incubated at each of the parasites’ representative growth temperatures, described above, for 72 h. At the 72 h time point, 25 μL of CellTiter-Glo 2.0 reagent was added to all wells of the 96-well plates using the Biomek NX^P automated workstation. The plates were protected from light and contents were mixed using an orbital shaker at 300 rpm at room temperature for 2 min to induce cell lysis. After shaking, the plates were equilibrated at room temperature for 10 min to stabilize the luminescent signal. The adenosine triphosphate (ATP) luminescent signal (relative light units; RLUs) was measured at 490 nm with a SpectraMax I3X plate reader (Molecular Devices, Sunnyvale, CA, USA). Drug inhibitory concentration (IC50) curves were generated using total ATP RLUs, where controls were calculated as the average of replicates using the Levenberg–Marquardt algorithm, using DMSO as the normalization control, as defined in Collaborative Drug Discovery Inc. (CDD) Vault (Burlingame, CA, USA). Values reported are from a minimum of two biological replicates with standard deviations.
(ATP-based viability assays read luminescence as a measure of living cells.)

[4] abbreviates: MTS assay, 72 h, doubling dilutions from 10 µM, read-out: A549 Mean IC50.
The mark [5] stands for this setting: Homo sapiens, A549, MTS assay, 72 h, doubling dilutions from 10 µM, read-out: A549 Mean IC50.

The IC50 is the concentration at which inhibition is half-maximal. For `Cc1ccc(N2CCC(CCOc3ccc(S(C)(=O)=O)cc3)CC2)nn1` [MMV1634394], the IC50 in experiment [1] (setting [4]) is more than 10 µM; in experiment [2], ≤ 10 µM and 8.05 µM.

Regarding `CCC(C)(C)c1ccc(CC(C)CN2C[C@@H](C)O[C@@H](C)C2)cc1` (stereo partly shown) [Amorolfine], the IC50 in experiment [3] was 1.63 ± 1.62 µM; in experiment [3] (listed as amorolfine), not above 10 µM; in experiment [1] (setting [5]) it was more than 10 µM. Besides, the “Selectivity Index (A549 IC50/A. castellanii IC50)” value in experiment [3] is reported as not below 6.13.

Consider `CNCC(=O)OCc1cccnc1N(C)C(=O)OC(C)[n+]1cnn(C[C@](O)(c2cc(F)ccc2F)[C@@H](C)c2nc(-c3ccc(C#N)cc3)cs2)c1` (stereo partly shown) [Isavuconazonium], for which the values for the IC50 in experiment [3] (Acanthamoeba castellanii) and in experiment [1] (setting [5]) were 0.09 ± 0.02 µM and more than 10 µM, respectively. Further, the “Selectivity Index (A549 IC50/A. castellanii IC50)” value is not below 105 in experiment [3] and not below 10 in experiment [3] (listed as isavuconazonium). Further, the “potency against A. castellanii, in words” value in experiment [3] is recorded as “nanomolar potency”.

Consider `O=[N+]([O-])/C(Br)=C/c1ccc(Br)o1` [Furvina], for which the IC50 in experiment [3] was 4.2 ± 0.85 µM; in experiment [3] (listed as furvina) it was not above 10 µM; in experiment [1] (setting [4]) it was more than 10 µM.

Regarding `CCc1nc(N)nc(N)c1C#CC(C)c1cc(OC)cc(-c2ccncc2)c1` (stereo not shown) [MMV1580844], the IC50 in experiment [1] (setting [4]) is more than 10 µM; in experiment [2] it was 0.53 ± 0.11 µM. For the same compound, the “potency against B. mandrillaris, in words” value in experiment [2] is on record as “nanomolar potency”.

For `N#Cc1c(F)c(Cl)c(NCc2ccccc2)c(C#N)c1F` [MMV1582496], in experiment [3], the IC50 was 0.61 ± 0.35 µM and the “potency against A. castellanii, in words” value is reported as “nanomolar potency”. In addition, in experiment [1] (setting [4]), the IC50 was more than 10 µM.

As for `O=C(/C=C\n1cnc(-c2cc(C(F)(F)F)cc(C(F)(F)F)c2)n1)NNc1cnccn1` [Selinexor], the results for the IC50 in experiment [1] (setting [5]), in experiment [2] (Balamuthia mandrillaris) and in experiment [2] were more than 10 µM, not above 10 µM and 9.2 ± 1.13 µM, respectively. Moreover, the “Selectivity Index (A549 IC50/B. mandrillaris IC50)” value in experiment [2] was not below 1.09.

As for `C(=C\c1nc2ccccc2[nH]1)/c1ccc2c(c1)OCO2` [MMV1582495], in experiment [1] (setting [4]), the IC50 was more than 10 µM. Also, in experiment [2], inhibition was half-maximal at 0.54 ± 0.04 µM (IC50) and the “potency against B. mandrillaris, in words” value is given as “nanomolar potency”.

In the case of `CC(=O)N1CCN(c2ccc(OCC3COC(Cn4ccnc4)(c4ccc(Cl)cc4Cl)O3)cc2)CC1` (stereo not shown) [Ketoconazole], the IC50 in experiment [3] was 1.24 ± 0.8 µM; in experiment [3] (listed as ketoconazole) it was not above 10 µM; in experiment [1] (setting [5]) it was more than 10 µM.

As to `CN1CCN(Cc2ccc(-c3cnc4[nH]cc(-c5ccc6[nH]ccc6c5)c4c3)cc2)CC1` [URMC-099-C], the IC50 was 4.2 µM in experiment [1] (setting [5]), not above 10 µM in experiment [2] (Balamuthia mandrillaris) and 5.35 ± 1.63 µM in experiment [2]. In addition, the “Selectivity Index (A549 IC50/B. mandrillaris IC50)” value in experiment [2] stood at 0.79.

Consider `Clc1ccc(Cn2c(CN3CCCC3)nc3ccccc32)cc1` [Clemizole], for which the IC50 was more than 10 µM in experiment [1] (setting [5]), not above 10 µM in experiment [2] (Balamuthia mandrillaris) and 8.95 ± 1.48 µM in experiment [2]. For the same compound, the “Selectivity Index (A549 IC50/B. mandrillaris IC50)” value in experiment [2] is given as not below 1.12.

Take `Cc1nc2ccc(Oc3ccccc3)cc2c2c1CCN2CCc1ccccc1` [MMV1634399]: the IC50 in experiment [1] (setting [4]) is more than 10 µM; in experiment [2], 0.73 ± 0.28 µM. Besides, in experiment [2], the “potency against B. mandrillaris, in words” value is on record as “nanomolar potency”.

Turning to `O=C(O)C(F)(F)F` [Trifluoroacetic acid], the IC50 in experiment [3] is 1.97 ± 1 µM; in experiment [3] (listed as trifluoroacetic acid), not above 10 µM; in experiment [1] (Homo sapiens, A549, 72 h, read-out: A549 Mean IC50 (µM)) it was more than 10 µM. Further, the “Selectivity Index (A549 IC50/A. castellanii IC50)” value in experiment [3] is listed as not below 5.10.

For `CCCCC(CC)CNC(=N)NC(=N)NCCCCCCNC(=N)NC(=N)NCC(CC)CCCC` (stereo not shown) [Alexidine], the IC50 was 2.4 ± 1.56 µM in experiment [3], not above 10 µM in experiment [3] (listed as alexidine) and 2.1 µM in experiment [1] (setting [5]). Further, the “Selectivity Index (A549 IC50/A. castellanii IC50)” value in experiment [3] was 0.88.
